Data from patent EP0367895A1, “Pyrimidinyl-substituted hydroxyacids, lactones and esters and pharmaceutical compositions containing them” (SANDOZ AG, priority 1988, dated 1990).

Assays:
[1] = target: T1, 3-hydroxy-3-methylglutaryl coenzyme A (HMG-CoA) reductase (Rattus norvegicus, UniProt P51639); assay: Test A: in vitro microsomal assay of HMG-CoA reductase inhibition (as described in EP 114 027); format: biochemical; conditions: concentration calculated to produce a 50% inhibition of HMG-CoA reductase activity; tests run between 0.05 µM and 1000 µM; read-out: IC₅₀
T1 construct: In vitro microsomal assay of; from tissue; host or cells: Microsomes; it is liver according to own knowledge of EP 114 027
T1 sequence (P51639 1-887): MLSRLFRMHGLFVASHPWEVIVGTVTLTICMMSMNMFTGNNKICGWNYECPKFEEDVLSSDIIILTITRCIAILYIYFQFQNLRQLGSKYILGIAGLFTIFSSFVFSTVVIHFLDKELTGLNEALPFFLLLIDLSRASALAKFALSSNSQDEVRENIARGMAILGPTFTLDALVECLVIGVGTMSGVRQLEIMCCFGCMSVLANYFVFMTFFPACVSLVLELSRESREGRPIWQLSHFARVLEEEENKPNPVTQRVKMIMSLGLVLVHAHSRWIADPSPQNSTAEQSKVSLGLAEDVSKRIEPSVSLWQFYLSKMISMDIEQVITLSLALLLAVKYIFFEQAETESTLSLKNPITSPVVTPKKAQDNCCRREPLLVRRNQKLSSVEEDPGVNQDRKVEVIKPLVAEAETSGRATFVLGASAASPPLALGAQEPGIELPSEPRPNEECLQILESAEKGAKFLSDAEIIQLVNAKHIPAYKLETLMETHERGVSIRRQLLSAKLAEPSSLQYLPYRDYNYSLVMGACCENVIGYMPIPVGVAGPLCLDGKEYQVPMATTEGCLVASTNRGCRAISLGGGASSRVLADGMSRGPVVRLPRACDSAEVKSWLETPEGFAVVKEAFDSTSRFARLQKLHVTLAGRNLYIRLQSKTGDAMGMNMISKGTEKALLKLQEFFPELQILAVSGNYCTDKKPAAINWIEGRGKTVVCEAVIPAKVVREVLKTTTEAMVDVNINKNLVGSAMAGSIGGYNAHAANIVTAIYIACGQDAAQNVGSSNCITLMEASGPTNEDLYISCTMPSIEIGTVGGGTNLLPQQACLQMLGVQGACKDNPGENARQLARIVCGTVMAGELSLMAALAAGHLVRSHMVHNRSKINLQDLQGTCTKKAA
Experimental: Test A. In vitro microsomal assay of 3-hydroxy-3-methylglutaryl coenzyme A (HMG-CoA) reductase inhibition: as described in EP 114 027:
IC₅₀ is the concentration of the test substance in the assay system calculated to produce a 50% inhibition of HMG-CoA reductase activity. The tests are run at concentrations of test substance between 0.05 µM and 1000 µM.

[2] = tested on: 3β-hydroxysterol synthesis; assay: Test B: in vivo cholesterol biosynthesis inhibition test (as described in EP 114 027); conditions: dose calculated to produce a 50% inhibition of 3β-hydroxysterol synthesis, test doses between 0.01 mg/kg and 10 mg/kg; for ED50: read-out: ED₅₀
Experimental: Test B. In vivo cholesterol biosynthesis inhibition test: as described in EP 114 027:
ED₅₀ is the dose of the test substance calculated to produce a 50% inhibition of 3β-hydroxysterol synthesis. The studies are run to test doses of between 0.01 mg/kg and 10 mg/kg.

CC(C)c1nc(N(C)C)nc(-c2ccc(F)cc2)c1/C=C/[C@@H](O)C[C@@H](O)CC(=O)[O-].[Na+] [Example 1b), sodium (3R,5S)-[E]-7-[4-(4-fluoro-phenyl)-6-(1-methylethyl)-2-(dimethylamino)pyrimidin-5-yl]-3,5-dihydroxy-6-heptenoate]
IC50 [1]: 26 nM
ED50 [2]: 0.028 mg/kg

CC(C)c1nc(N(C)C)nc(-c2ccncc2)c1/C=C/[C@@H](O)C[C@@H](O)CC(=O)O [Example 11d]
IC50 [1]: 39 nM
ED50 [2]: 0.04 mg/kg

Mevinolin [reference compound]
ED₅₀ [2]: 0.41 mg/kg
